Patent publication US8987459B2, “Compounds for the treatment of conditions associated with DGAT1 activity” (Novartis AG, priority 2013, dated 2015)
Converted amounts (≈) assume the structure as drawn. Counter-ions that a name gives are not always drawn. Like-named read-outs stand apart in the source and are kept apart here. Marks after values point to notes of the source that are not given here.

Columns and labels:
[1] = Solubility in buffers, biorelevant media and water
[2] = Hygroscopicity (relative humidity); format: physicochemical; conditions: for Change in crystallinity (PXRD): listed under hygroscopicity
[3] = Oral exposure and bioavailability in rat; format: in vivo; conditions: for dose linearity: suspension
Description: (§1) Direct in vivo comparison of 2-((1R,4R)-4-(4-(5-(benzo[d]oxazol-2-ylamino)pyridin-2-yl)phenyl)cyclohexyl)acetic acid meglumine and 2-((1R,4R)-4-(4-(5-(benzo[d]oxazol-2-ylamino)pyridin-2-yl)phenyl)cyclohexyl)acetic acid sodium salt suspensions were performed in rat and mouse. […] From this preclinical data, it was confirmed that 2-((1R,4R)-4-(4-(5-(benzo[d]oxazol-2-ylamino)pyridin-2-yl)phenyl)cyclohexyl)acetic acid meglumine is a better performing salt.

[4] = Oral bioavailability in mouse; format: in vivo; conditions: suspension at 30 mg/kg
Description: as §1

[5] = Oral exposure and bioavailability in dog; format: in vivo
Description: (§2) With a meglumine salt suspension at 100 mg/kg, about 33% decrease in plasma exposure was observed compared to solid dispersion. […] The solid dispersion formulation has several technical challenges which can be avoided by using a 2-((1R,4R)-4-(4-(5-(benzo[d]oxazol-2-ylamino)pyridin-2-yl)phenyl)cyclohexyl)acetic acid meglumine Form A suspension-based formulation.

[6] = Aqueous kinetic solubility, physical blend with polymers and/or surfactants; format: physicochemical; conditions: simple physical blend with polymers and/or surfactants
Description: (§3) A standard capsule formulation with 2-((1R,4R)-4-(4-(5-(benzo[d]oxazol-2-ylamino)pyridin-2-yl)phenyl)cyclohexyl)acetic acid meglumine is the recommended CSF strategy to support the projected efficacious dose range in human (11-120 mg) based on following observations: • Low efficacious dose of 2-((1R,4R)-4-(4-(5-(benzo[d]oxazol-2-ylamino)pyridin-2-yl)phenyl)cyclohexyl)acetic acid in preclinical species (0.1-0.3 mg/kg) • High exposure multiples in preclinical species (rat and dog) from a suspension formulation of 2-((1R,4R)-4-(4-(5-(benzo[d]oxazol-2-ylamino)pyridin-2-yl)phenyl)cyclohexyl)acetic acid meglumine • Aqueous kinetic solubility of 2-((1R,4R)-4-(4-(5-(benzo[d]oxazol-2-ylamino)pyridin-2-yl)phenyl)cyclohexyl)acetic acid meglumine can be further improved (20-60 fold) from simple physical blend with polymers and/or surfactants • Improvement in exposure and dose linearity from 2-((1R,4R)-4-(4-(5-(benzo[d]oxazol-2-ylamino)pyridin-2-yl)phenyl)cyclohexyl)acetic acid meglumine over the sodium salt

[7] = Intrinsic dissolution rate; format: physicochemical
Efficacious AUC in dog = format: in vivo; conditions: plasma, 0.3 mg/kg, at 0.3 mpk
Description: as §2

[8] = Efficacious dose in preclinical species; format: in vivo
Description: as §3

[9] = background statement, no medium given

SMILES	Solubility ([1]; FaSSIF V2) [µg/mL]	pH final of solubility sample ([1]; FaSSIF V2)	Solubility ([1]; FeSSIF V2) [µg/mL]	pH final of solubility sample ([1]; FeSSIF V2)	pH final of solubility sample ([1]; SGF pH 2.0)	Solubility ([1]; Water) [µg/mL]	pH final of solubility sample ([1]; Water)	Solubility ([1]; pH 1 (0.1N HCl)) [µg/mL]	pH final of solubility sample ([1]; pH 1 (0.1N HCl))	Solubility ([1]; pH 4.8 (50 mM Acetate)) [µg/mL]	pH final of solubility sample ([1]; pH 4.8 (50 mM Acetate))	Solubility ([1]; pH 6.5 (50 mM Phosphate)) [µg/mL]	pH final of solubility sample ([1]; pH 6.5 (50 mM Phosphate))	Hygroscopicity [%] 0-40% r.h. [2] [%]	Hygroscopicity [%] 0-95% r.h. [2] [%]	Change in crystallinity (PXRD) [2]	dose linearity ([3]; 30 and 100 mg/kg)	Solubility ([1]; SGF pH 2.0) [µg/mL]	Intrinsic Dissolution Rate ([7]; pH 4.5 (50 mM Acetate))	Intrinsic Dissolution Rate ([7]; pH 6.8 (50 mM Phosphate))	also measured
O=C([O-])C[C@H]1CC[C@H](c2ccc(-c3ccc(Nc4nc5ccccc5o4)cn3)cc2)CC1.[Na+] [Sodium, 2-((1R,4R)-4-(4-(5-(benzo[d]oxazol-2-ylamino)pyridin-2-yl)phenyl)cyclohexyl) acetate sodium salt]	7	(7.47)	3	(5.66)	(9.13)	23	(9.3)	<0.5	(1.03)	<0.5	(5.08)	0.6	(8.5)	13.1	16.2	No	not dose linear	–	–	–	Solubility [mg/ml] ([1]; SGF pH 2.0): 0.062* mg/ml; bioavailability ([3]; suspension at 30 mg/kg): 7.6%; bioavailability ([3]; suspension at 100 mg/kg): 4.6%; bioavailability [4]: 9.6%
O=C([O-])C[C@H]1CC[C@H](c2ccc(-c3ccc(Nc4nc5ccccc5o4)cn3)cc2)CC1.[K+] [Potassium, 2-((1R,4R)-4-(4-(5-(benzo[d]oxazol-2-ylamino)pyridin-2-yl)phenyl)cyclohexyl) acetate Potassium salt]	95	(8.32)	–	–	(3.73)	1050	(10.3)	50	(3.89)	<0.5	(4.90)	<0.5	(7.29)	4.52	21.77	No	–	3	–	–	–

Second part, led by results:

Solubility ([1]; FaSSIF V2) [µg/mL]	pH final of solubility sample ([1]; FaSSIF V2)	Solubility ([1]; FeSSIF V2) [µg/mL]	pH final of solubility sample ([1]; FeSSIF V2)	pH final of solubility sample ([1]; SGF pH 2.0)	Solubility ([1]; Water) [µg/mL]	pH final of solubility sample ([1]; Water)	Solubility ([1]; pH 1 (0.1N HCl)) [µg/mL]	pH final of solubility sample ([1]; pH 1 (0.1N HCl))	Solubility ([1]; pH 4.8 (50 mM Acetate)) [µg/mL]	pH final of solubility sample ([1]; pH 4.8 (50 mM Acetate))	Solubility ([1]; pH 6.5 (50 mM Phosphate)) [µg/mL]	pH final of solubility sample ([1]; pH 6.5 (50 mM Phosphate))	Hygroscopicity [%] 0-40% r.h. [2] [%]	Hygroscopicity [%] 0-95% r.h. [2] [%]	Change in crystallinity (PXRD) [2]	dose linearity ([3]; 30 and 100 mg/kg)	Solubility ([1]; SGF pH 2.0) [µg/mL]	Intrinsic Dissolution Rate ([7]; pH 4.5 (50 mM Acetate))	Intrinsic Dissolution Rate ([7]; pH 6.8 (50 mM Phosphate))	SMILES	also measured
–	–	–	–	–	–	–	–	–	–	–	–	–	–	–	–	dose linear	–	–	–	O=C(O)C[C@H]1CC[C@H](c2ccc(-c3ccc(Nc4nc5ccccc5o4)cn3)cc2)CC1 [meglumine salt, meglumine salt of 2-((1R,4R)-4-(4-(5-(benzo[d]oxazol-2-ylamino)pyridin-2-yl)phenyl)cyclohexyl)acetic acid]	bioavailability ([5]; plasma, po, 30 mg/kg solution dose (sodium material dissolved in 10% HPβCD in purified water or PBS), read-out: Absolute oral bioavailability): 1.5%; decrease in plasma exposure compared to solid dispersion ([5]; suspension at 100 mg/kg): about 33%; exposure over the efficacious AUC ([5]; suspension at 100 mg/kg): ~150 ×; dose linearity ([3]; 300 mpk): non-linear; bioavailability ([3]; in vivo, oral, 300 mg/kg, suspension at 300 mpk, read-out: bioavailability): 1.9%; bioavailability ([3]; in vivo, oral, suspension at 30 mg/kg, read-out: bioavailability): 3.1%; bioavailability ([3]; in vivo, oral, suspension at 100 mg/kg, read-out: bioavailability): 3.8%; bioavailability ([4]; in vivo, oral, read-out: bioavailability): 17.3%; improvement of aqueous kinetic solubility [6]: 20-60 fold
–	–	–	–	–	–	–	–	–	–	–	–	–	1.44	15.95	No	–	–	BLQ	–	C[N+](C)(C)CCO.O=C(O)C[C@H]1CC[C@H](c2ccc(-c3ccc(Nc4nc5ccccc5o4)cn3)cc2)CC1.O=C([O-])C[C@H]1CC[C@H](c2ccc(-c3ccc(Nc4nc5ccccc5o4)cn3)cc2)CC1 [Hemi-choline, 2-((1R,4R)-4-(4-(5-(benzo[d]oxazol-2-ylamino)pyridin-2-yl)phenyl)cyclohexyl) acetate Hemi-choline salt]	Solubility (pH 1): 140 µg/mL; pH final of solubility sample (pH 1): (1.06); Solubility (pH 2): 95 µg/mL; pH final of solubility sample (pH 2): (1.05); Solubility (pH 4.8): 15 µg/mL; pH final of solubility sample (pH 4.8): (4.76); Solubility (pH 6.5): 30 µg/mL; pH final of solubility sample (pH 6.5): (7.15)
10	(6.86)	1	(6.26)	(2.37)	70	(10.4)	150	(2.79)	<0.5	(4.88)	40	(7.27)	0.162	0.588	No	–	<0.5	BLQ	BLQ	O=C(O)C[C@H]1CC[C@H](c2ccc(-c3ccc(Nc4nc5ccccc5o4)cn3)cc2)CC1 [Meglumine Form A, Meglumine salt of 2-((1R,4R)-4-(4-(5-(benzo[d]oxazol-2-ylamino)pyridin-2-yl)phenyl)cyclohexyl)acetic acid]	–
–	(6.34)	60 (≈ 140 µM)	(5.53)	(2.38)	10 (≈ 23.4 µM)	(7.63)	<0.5	(1.59)	–	(4.76)	<0.5	(6.87)	0.136	0.251	No	–	–	0.013 mg min^−1 cm^−2	BLQ	O=C(O)C[C@H]1CC[C@H](c2ccc(-c3ccc(Nc4nc5ccccc5o4)cn3)cc2)CC1 [Free acid, 2-((1R,4R)-4-(4-(5-(benzo[d]oxazol-2-ylamino)pyridin-2-yl)phenyl)cyclohexyl)acetic acid]	intrinsic dissolution (in words) [7, 9]: low; AUC (Efficacious AUC in dog): 0.132 µM·h; Solubility ([1]; 50 mM acetate buffer, pH 4.8, aqueous buffer, Solubility [mg/ml], pH 4.8 (50 mM Acetate)): < 0.5 µg/mL; Solubility ([1]; FaSSIF V2, fassif, Solubility [mg/ml], FaSSIF V2): 20 µg/mL (≈ 46.8 µM); Solubility ([1]; SGF, pH 2, simulated gastric fluid, Solubility [mg/ml], SGF pH 2.0): < 0.5 µg/mL; solubility (in words) [1, 9]: low; efficacious dose in preclinical species [8]: 0.1 to 0.3 mg/kg
